Laboratory results from PubChem BioAssay AID651686 (The Scripps Research Institute Molecular Screening Center, 2012).
Active and inactive are the calls of the source. The rule behind the calls is not given here.

These molecules were tested on OPRD1 counterscreen cells, luminescence, activation (assay: OPRD1 cell luminescence activation counter-screen – dose response, counter-screen for OPRM1-OPRD1 heterodimer activator project, late-stage follow-up (AID 651686)).
With `CCOC(=O)C1(CCCc2ccccc2)CCN(Cc2cnn(C)c2)CC1` the EC50 was > 40 µM (inactive). With `CCOC(=O)C1(Cc2ccccc2)CCN(Cc2cccn2-c2nccs2)CC1` the EC50 was > 40 µM (inactive). In the case of `OCC1(CCc2ccccc2)CCN(Cc2cc(F)ccc2-n2cccn2)CC1`, the EC50 is reported as > 40 µM (inactive). `CCOC(=O)C1(CCc2ccccc2)CCN(Cc2ccc(NC(C)=O)cc2)CC1` was tested, and the EC50 was 1.1 µM. In the case of `CCOC(=O)C1(CCc2ccccc2)CCN(Cc2ccccc2C)CC1`, the EC50 is reported as > 40 µM (inactive). `CCOC(=O)C1(CCc2ccccc2)CCN(Cc2ccc(OC(C)C)c(C#N)c2)CC1` was tested, and the EC50 was > 40 µM (inactive). With `CCOC(=O)C1(CCOc2ccccc2)CCN(Cc2cccn2-c2cccnc2)CC1` the EC50 was > 40 µM (inactive). For `CCOC(=O)C1(Cc2ccccc2)CCN(Cc2cccn2-c2cccnc2)CC1`, the EC50 was > 40 µM (inactive). For `CCOC(=O)C1(CC2CCCCO2)CCN(Cc2c(C)cc(C)cc2-n2cccn2)CC1` (stereo unspecified), the EC50 was > 40 µM (inactive). For `CCOC(=O)C1(CCc2ccccc2)CCN(Cc2cc(C)cc(C)c2)CC1`, the EC50 was > 40 µM (inactive). In the case of `CCOC(=O)C1(CCOc2ccccc2)CCN(Cc2ccc(O)c(OC)c2)CC1`, the EC50 is reported as > 40 µM (inactive).
